IC50 data for 19 molecules are collected here from patent US9884063B2, “Amido-substituted azole compounds” (Bayer Pharma Aktiengesellschaft, priority 2014, dated 2018).

pIC50: −log10 of the molar value. Where a name gives a salt, the structure may show the parent alone.

This assay concerns the target T1, TNKS2 (Homo sapiens, UniProt Q9H2K2).
T1 sequence (Q9H2K2 1-1166): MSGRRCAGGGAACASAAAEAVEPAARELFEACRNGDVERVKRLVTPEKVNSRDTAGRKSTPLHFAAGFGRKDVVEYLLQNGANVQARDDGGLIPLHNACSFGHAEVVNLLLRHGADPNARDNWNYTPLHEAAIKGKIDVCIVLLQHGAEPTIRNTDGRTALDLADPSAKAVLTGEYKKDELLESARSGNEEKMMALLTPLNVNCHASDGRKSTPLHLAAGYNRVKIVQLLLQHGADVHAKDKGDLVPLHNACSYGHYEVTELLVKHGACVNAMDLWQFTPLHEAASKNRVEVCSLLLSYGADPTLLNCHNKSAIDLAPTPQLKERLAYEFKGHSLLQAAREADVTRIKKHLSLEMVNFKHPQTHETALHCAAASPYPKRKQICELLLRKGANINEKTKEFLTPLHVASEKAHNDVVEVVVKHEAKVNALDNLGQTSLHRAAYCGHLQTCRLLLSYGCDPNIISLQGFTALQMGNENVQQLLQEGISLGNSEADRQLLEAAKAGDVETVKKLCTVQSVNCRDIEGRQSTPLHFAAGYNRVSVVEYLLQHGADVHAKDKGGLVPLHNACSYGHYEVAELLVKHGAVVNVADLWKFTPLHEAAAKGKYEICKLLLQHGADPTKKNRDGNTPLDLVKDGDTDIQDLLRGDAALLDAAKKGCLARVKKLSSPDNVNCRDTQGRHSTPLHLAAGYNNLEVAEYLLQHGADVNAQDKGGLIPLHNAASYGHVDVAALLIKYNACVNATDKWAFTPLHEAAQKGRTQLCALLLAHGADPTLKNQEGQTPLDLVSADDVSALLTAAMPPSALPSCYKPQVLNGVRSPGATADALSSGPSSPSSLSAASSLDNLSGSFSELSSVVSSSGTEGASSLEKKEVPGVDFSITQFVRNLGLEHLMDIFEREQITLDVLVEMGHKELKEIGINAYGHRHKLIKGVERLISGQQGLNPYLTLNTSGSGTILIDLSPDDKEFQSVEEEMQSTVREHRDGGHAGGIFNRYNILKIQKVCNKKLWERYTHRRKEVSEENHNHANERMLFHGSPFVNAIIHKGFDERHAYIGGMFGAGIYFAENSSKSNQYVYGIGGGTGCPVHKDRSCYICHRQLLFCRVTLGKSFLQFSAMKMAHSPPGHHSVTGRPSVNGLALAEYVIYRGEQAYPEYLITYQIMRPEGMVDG
The assay can be described thus: Modified TNKS2 Assay 3 (BPS kit #80578, biotin-NAD+, 96 well). The format is biochemical. Conditions: human TNKS2, BPS kit #80578, 96 well. An outline of the steps: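 Commercial kit assay measuring TNKS2-catalysed incorporation of biotin-labelled NAD+ into a protein substrate, detected by streptavidin-HRP chemiluminescence. Run per manufacturer's protocol; IC50 is the concentration halving the normalised signal.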
With `O=C(Nc1ccc(NC(=O)c2[nH]cnc2C(=O)NCCC2CC2)cc1)c1cc(F)c(F)cc1Cl` [Example 49, N^5-{4-[(2-chloro-4,5-difluorobenzoyl)amino]phenyl}-N^4-(2-cyclopropylethyl)-1H-imidazole-4,5-dicarboxamide], the pIC50 is less than 6.30.

`O=C(Nc1ccc(NC(=O)c2nc[nH]c2C(=O)NCCO)cc1)c1ccc(F)cc1Cl` [Example 132, N^4-{4-[(2-chloro-4-fluorobenzoyl)amino]phenyl}-N^5-(2-hydroxyethyl)-1H-imidazole-4,5-dicarboxamide] had a pIC50 of 6.37.

`CNC(=O)c1nc[nH]c1C(=O)Nc1ccc(NC(=O)c2ccccc2Br)cc1` [Example 37, N^5-{4-[(2-bromobenzoyl)amino]phenyl}-N^4-methyl-1H-imidazole-4,5-dicarboxamide] had a negative-log IC50 (pIC50) of 6.59.

Consider `CC(C)(N)CNC(=O)c1ncoc1C(=O)Nc1ccc(NC(=O)c2ccc(F)cc2Cl)cc1` [Example 219, N^4-(2-amino-2-methylpropyl)-N^5-{4-[(2-chloro-4-fluorobenzoyl)amino]phenyl}-1,3-oxazole-4,5-dicarboxamide], for which the pIC50 was 6.38.

In turn, `CCN1CCCC1CNC(=O)c1nc[nH]c1C(=O)Nc1ccc(NC(=O)c2ccc(F)cc2Cl)cc1` (stereo not shown) [Example 390, N^5-{4-[(2-chloro-4-fluorobenzoyl)amino]phenyl}-N^4-[(1-ethylpyrrolidin-2-yl)methyl]-1H-imidazole-4,5-dicarboxamide] showed a negative-log IC50 (pIC50) of 8.52.

In turn, `O=C(Nc1ccc(NC(=O)c2[nH]cnc2C(=O)N2CC(F)C2)cc1)c1cc(F)c(F)cc1Cl` [Example 47, N-{4-[(2-chloro-4,5-difluorobenzoyl)amino]phenyl}-4-[(3-fluoroazetidin-1-yl)carbonyl]-1H-imidazole-5-carboxamide] had a pIC50 of less than 6.30.

On to `O=C(Nc1ccc(NC(=O)c2nc[nH]c2C(=O)NCCN2CC[C@@H](F)C2)cc1)c1ccc(F)cc1Cl` [Example 231, N^4-{4-[(2-chloro-4-fluorobenzoyl)amino]phenyl}-N^5-{2-[(3R)-3-fluoropyrrolidin-1-yl]ethyl}-1H-imidazole-4,5-dicarboxamide], for which the pIC50 is 7.70.

The molecule `CNC(=O)c1nc[nH]c1C(=O)Nc1ccc(NC(=O)c2ccccc2Cl)c(OC)c1` [Example 99, N^5-{4-[(2-chlorobenzoyl)amino]-3-methoxyphenyl}-N^4-methyl-1H-imidazole-4,5-dicarboxamide] had a negative-log IC50 (pIC50) of 7.05.

Take `O=C(Nc1ccc(NC(=O)c2nc[nH]c2C(=O)NCCN2CC[C@H](F)C2)cc1)c1ccc(F)cc1Cl` [Example 232, N^4-{4-[(2-chloro-4-fluorobenzoyl)amino]phenyl}-N^5-{2-[(3S)-3-fluoropyrrolidin-1-yl]ethyl}-1H-imidazole-4,5-dicarboxamide]: the pIC50 was 7.40.

Consider `O=C(Nc1ccc(NC(=O)c2nc[nH]c2C(=O)NCC2CCCN2)cc1)c1ccc(F)cc1Cl` (stereo not shown) [Example 284, N^4-{4-[(2-chloro-4-fluorobenzoyl)amino]phenyl}-N^5-(pyrrolidin-2-ylmethyl)-1H-imidazole-4,5-dicarboxamide hydrochloride salt], for which the pIC50 was 8.00.

In the case of `COc1cc(NC(=O)c2[nH]cnc2C(=O)NCCN2CCCCC2)ccc1NC(=O)c1ccc(F)cc1Cl` [Example 97, N^5-{4-[(2-chloro-4-fluorobenzoyl)amino]-3-methoxyphenyl}-N^4-[2-(piperidin-1-yl)ethyl]-1H-imidazole-4,5-dicarboxamide], the pIC50 was 7.70.

`CNCCNC(=O)c1[nH]cnc1C(=O)Nc1ccc(NC(=O)c2ccc(F)cc2Cl)cc1` [Example 287, N^4-{4-[(2-chloro-4-fluorobenzoyl)amino]phenyl}-N^5-[2-(methylamino)ethyl]-1H-imidazole-4,5-dicarboxamide] had a pIC50 of 7.70.

Molecule `CNC(=O)c1[nH]c(C)nc1C(=O)Nc1ccc(NC(=O)c2ccc(F)cc2Cl)cc1` [Example 65, N^4-{4-[(2-chloro-4-fluorobenzoyl)amino]phenyl}-N^5,2-dimethyl-1H-imidazole-4,5-dicarboxamide] showed a negative logarithm of the IC50 (pIC50) of 6.44.

Molecule `O=C(Nc1ccc(NC(=O)c2[nH]cnc2C(=O)NCCN2CCCCC2)cc1)c1ccc(F)cc1` [Example 33, N^4-{4-[(4-fluorobenzoyl)amino]phenyl}-N^5-[2-(piperidin-1-yl)ethyl]-1H-imidazole-4,5-dicarboxamide] had a negative logarithm of the IC50 (pIC50) of less than 6.30.

The molecule `O=C(Nc1ccc(NC(=O)c2[nH]cnc2C(=O)NCCN2CCCCC2)cc1)c1cc(OC(F)(F)F)ccc1Br` [Example 63, N^5-(4-{[2-bromo-5-(trifluoromethoxy)benzoyl]amino}phenyl)-N^4-[2-(piperidin-1-yl)ethyl]-1H-imidazole-4,5-dicarboxamide] gave a pIC50 of 8.40.

`O=C(Nc1ccc(NC(=O)c2nc[nH]c2C(=O)NCCN2CCC(F)CC2)cc1)c1ccc(F)cc1Cl` [Example 230, N^4-{4-[(2-chloro-4-fluorobenzoyl)amino]phenyl}-N^5-[2-(4-fluoropiperidin-1-yl)ethyl]-1H-imidazole-4,5-dicarboxamide] had a pIC50 of 7.70.

The molecule `O=C(Nc1ccc(NC(=O)c2[nH]cnc2C(=O)NCCN2CCCCC2)cc1F)c1ccc(F)cc1Cl` [Example 74, N^5-{4-[(2-chloro-4-fluorobenzoyl)amino]-3-fluorophenyl}-N^4-[2-(piperidin-1-yl)ethyl]-1H-imidazole-4,5-dicarboxamide] showed a pIC50 of more than 9.30.

As to `CCNC(=O)c1[nH]cnc1C(=O)Nc1ccc(NC(=O)c2ccc(F)cc2Cl)cc1` [Example 138, N^4-{4-[(2-chloro-4-fluorobenzoyl)amino]phenyl}-N^5-ethyl-1H-imidazole-4,5-dicarboxamide], the pIC50 was 6.82.

Consider `O=C(Nc1ccc(NC(=O)c2nc[nH]c2C(=O)NCCN2CCC(F)(F)CC2)cc1)c1ccc(F)cc1Cl` [Example 224, N^4-{4-[(2-chloro-4-fluorobenzoyl)amino]phenyl}-N^5-[2-(4,4-difluoropiperidin-1-yl)ethyl]-1H-imidazole-4,5-dicarboxamide], for which the pIC50 is 6.85.

What is called pIC50 is −log10 of the IC50, conventionally taken in molar units. High values mean a small IC50, low ones a large IC50.
